Test [1] concerns homozygous dy^W/dy^W mice deficient in laminin-α2 expression. As to the kind of experiment: Body weight gain in mouse model for MDC1A (FIG. 2). In kind it is in vivo. To be noted: vehicle maximally 11%. As for the experimental part:
Example 2 describes the therapeutically relevant effect of N-(dibenz(b,f)oxepin-10-ylmethyl)-N-methyl-N-prop-2-ynylammonium maleate (omigapil) on the body weight gain in a mouse model for MDC1A deficient in laminin-α2 expression. Starting at day fifteen, homozygous dy^W/dy^W mice were treated with omigapil. Their individual body weights were assessed daily and compared to homozygous dy^W/dy^W mice treated with vehicle only (control group). For this, omigapil was given to dy^W/dy^W-mice at doses of 0.1 or 1 mg/kg body weight, respectively. The treatment regime was as described in example 1.
Newborn dy^W/dy^W mice were genotyped and randomly assigned to the vehicle or the 0.1 and 1 mg/kg omigapil groups. The individual body weights were assessed daily and the mean body weight were calculated every week. The percentage of mice above an average body weight of twelve grams is shown grouped according to age (between 6 and 11 weeks) for each treatment group. In total 27, 34 and 25 animals were included into the vehicle, the 0.1 and the 1 mg/kg omigapil group, respectively.

For test [2] the test system is unchanged. Nature of the test: Survival rate in mouse model for MDC1A (Kaplan-Meier, FIG. 1). In kind it is in vivo. To be noted: 0.1 mg/kg once daily (i.p., then gavage from 4th week), 1 out of 13 animals, vehicle 6 out of 15 (=40%). As for the experimental part: The effect of N-(dibenz(b,f)oxepin-10-ylmethyl)-N-methyl-N-prop-2-ynylammonium maleate (omigapil) on the survival rate was tested in a mouse model for MDC1A deficient in laminin-α2 expression. Starting at day fifteen, homozygous dy^W/dy^W mice were treated with omigapil. Their survival rate was compared to homozygous dy^W/dy^W mice treated with vehicle only. For this, omigapil was dissolved in 0.5% w/v ethanol to a final concentration of 20 μg/ml. The treatment regime was as follows: omigapil (20 μg/ml in 0.5% ethanol) was applied to 3 week old dy^W/dy^W-mice by intraperitoneal (i.p.) injection once per day; from the 4th week of age onwards mice received the same concentration of omigapil once per day by gavage feeding instead of i.p. application. The final dose of omigapil given to dy^W/dy^W-mice at all times was 0.1 mg/kg body weight, once daily following the guidance as described elsewhere (Sagot Y. et al. (2000)—An orally active anti-apoptotic molecule (CGP 3466B) preserves mitochondria and enhances survival in an animal model of motoneuron disease. Br. J. Pharmacol. 131:721-728). Control mice received the equivalent amount of vehicle only. […]

Test [3] shares this test system. As to the kind of experiment: Muscle fiber size distribution in Triceps muscle (FIG. 4). Conditions: dy^W/dy^W mice at 6 weeks of age, 0.1 mg/kg; vehicle 8%; p-value<0.05. It is filed as in vivo, mouse. The procedure: The effect of N-(dibenz(b,f)oxepin-10-ylmethyl)-N-methyl-N-prop-2-ynylammonium maleate (omigapil) on muscle fiber size distribution was tested in a mouse model for MDC1A deficient in laminin-α2 expression. Muscle fiber diameters were analyzed in Triceps muscle of 6 weeks old dy^W/dy^W mice treated with 0.1 mg/kg body weight omigapil or with vehicle only. The treatment regime was as described in example 1.
It can be concluded from this increase in large diameter myofibers that omigapil improves muscle histology in an animal model for muscular dystrophy caused by laminin α2-deficiency.
Newborn dy^W/dy^W mice were genotyped and randomly assigned to the vehicle or omigapil group. The myofiber diameters were measured following methods known to the skilled artist (Briguet, A., Courdier-Fruh, I., Foster, M., Meier, T., Magyar, J. P. (2004)—“Histological parameters for the quantitative assessment of muscular dystrophy in the mdx-mouse”, Neuromuscul Disord 14(10): 675-82). For each muscle all muscle fibers of one cross section were included into the analysis. 7 animals were analyzed per treatment group. 8% of the myofibers in the Triceps muscle of the vehicle-treated dy^W/dy^W mice had muscle diameters above 50 micrometers at 6 weeks of age while 15% of myofibres in the omigapil-treated group fulfilled this criteria. Asterisk: p-value<0.05.

For test [4] the test system is unchanged. Nature of the test: Voluntary exploratory locomotory activity in a new cage (FIG. 6). Conditions: dy^W/dy^W mice at 6 weeks of age; for locomotory activity in the 10-minute test period: vehicle 236 seconds, p-value<0.05. In kind it is in vivo, mouse. As for the experimental part: The therapeutically relevant effect of N-(dibenz(b,f)oxepin-10-ylmethyl)-N-methyl-N-prop-2-ynylammonium maleate (omigapil) on the voluntary locomotion was tested in a mouse model for MDC1A deficient in laminin-α2 expression. Starting at day fifteen, homozygous dy^W/dy^W mice were treated with omigapil at doses of 0.1 or 1 mg/kg body weight. Their individual exploratory locomotory activity was assessed at 6 weeks of age and compared to age-matched dy^W/dy^W mice treated with vehicle only. The treatment regime was as described in example 1.
It can be concluded that omigapil increases locomotory activity in an animal model for muscular dystrophy caused by laminin α2-deficiency.
Newborn dy^W/dy^W mice were genotyped and randomly assigned to the vehicle or the 0.1 and 1 mg/kg omigapil groups. The voluntary locomotory activity was measured within the first 10 minutes after having placed the animal in a new cage. […] The difference in activity is statistically significant for both omigapil treatments (asterisk: p-value<0.05). In total 13, 15 and 10 animals were included into the vehicle, the 0.1 and the 1 mg/kg omigapil group, respectively.

For test [5] the test system is unchanged. As to the kind of experiment: Skeletal deformation (kyphosis) by X-ray analysis and visual scoring (FIG. 5). In kind it is in vivo, mouse. To be noted: dy^W/dy^W mice at 11 weeks of age, 1 mg/kg; example animal; vehicle 66°. The procedure: The beneficial and therapeutically relevant effect of N-(dibenz(b,f)oxepin-10-ylmethyl)-N-methyl-N-prop-2-ynylammonium maleate (omigapil) on the skeletal deformation (i.e. kyphosis) was tested in a mouse model for MDC1A deficient in laminin-α2 expression. For this, homozygous dy^W/dy^W mice were treated with omigapil (at a dose of 1 mg/kg body weight) and their kyphosis was scored at 11 weeks of age by visual inspection and X-ray analysis and compared to the extent of kyphosis seen in homozygous dy^W/dy^W mice treated with vehicle only and untreated wildtype mice. The treatment regime was as described in example 1.
Spinal deformation was documented by X-ray pictures of an age-matched wild-type mouse (A), a vehicle-treated (B) and an 1 mg/kg omigapil-treated dy^W/dy^W mouse (C). The kyphosis was quantified in living animals using a visual scoring system (1: barely detectable, 2: mild, 3: moderate, 4: severe) (D). 9 vehicle- and 7 omigapil-treated animals were analyzed.

Test [6] shares this test system. Nature of the test: Skeletal muscle apoptosis (TUNEL) in Triceps muscle (FIG. 3). To be noted: dy^W/dy^W mice at 6 weeks of age, 0.1 mg/kg. In kind it is in vivo, mouse. The procedure:
The effect of N-(dibenz(b,f)oxepin-10-ylmethyl)-N-methyl-N-prop-2-ynylammonium maleate (omigapil) on skeletal muscle apoptosis was tested in a mouse model for MDC1A deficient in laminin-α2 expression. Starting at day fifteen, homozygous dy^W/dy^W mice were treated with omigapil. The number of apoptotic myonuclei were analyzed and compared to the number of apoptotic myonuclei determined in homozygous dy^W/dy^W mice treated with vehicle only and to the number of apoptotic myonuclei determined in untreated wild-type mice. For this, omigapil was given to dy^W/dy^W-mice at a dose of 0.1 mg/kg body weight according to the treatment regime described in example 1. […]
Newborn dy^W/dy^W mice were genotyped and randomly assigned to the vehicle or omigapil group. The apoptotic myonuclei in the Triceps foreleg muscle were determined by counting muscle fibers positively stained for Terminal dUTP nick end labeling (TUNEL). […] The relative number of apoptotic myofibres was calculated by dividing the number of TUNEL positive myonuclei by the total number of myofibres. 7 animals were analyzed per treatment group. 1.1% of the myofibers in the Triceps muscle of the vehicle-treated dy^W/dy^W mice had apoptotic myonuclei at 6 weeks of age while only 0.7% apoptotic myofibres were detected in the omigapil-treated group. […]

The target in test [7] is glyceraldehyde-3-phosphate dehydrogenase (GAPDH) (Homo sapiens, UniProt P04406). Conditions: reported in J. Biol. Chem. 273:5821-5828; cited from earlier work.
glyceraldehyde-3-phosphate dehydrogenase (GAPDH), sequence (P04406 whole entry, species assumed): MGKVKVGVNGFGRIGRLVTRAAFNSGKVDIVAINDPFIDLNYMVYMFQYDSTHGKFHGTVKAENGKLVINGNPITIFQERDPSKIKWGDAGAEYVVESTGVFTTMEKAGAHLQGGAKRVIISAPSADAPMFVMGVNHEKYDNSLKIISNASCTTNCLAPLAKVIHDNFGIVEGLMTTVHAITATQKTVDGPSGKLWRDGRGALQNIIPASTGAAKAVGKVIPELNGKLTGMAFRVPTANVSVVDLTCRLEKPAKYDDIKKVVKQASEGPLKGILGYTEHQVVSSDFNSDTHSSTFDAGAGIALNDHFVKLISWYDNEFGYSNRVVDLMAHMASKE

Turning to “N-(dibenz(b,f)oxepin-10-ylmethyl)-N-methyl-N-prop-2-ynylammonium maleate [omigapil]”, the “percentage of mice that reached a body weight above 12 grams within the first 11 weeks of age” value in test [1] (0.1 mg/kg omigapil) amounted to 25%; in test [1] (1 mg/kg omigapil), 43%. Also, the “animals died within the first 80 days of age” value in test [2] amounted to 8%. For the same molecule, the “myofibres with muscle fiber diameters above 50 micrometers in the Triceps muscle” value in test [3] came out at 15%. The results for the “increase in locomotory activity compared to vehicle group” value in test [4] (0.1 mg/kg) and in test [4] (1 mg/kg) were 39% and 26%, respectively. Besides, the “locomotory activity in the 10-minute test period” value turned out to be 330 seconds in test [4] (0.1 mg/kg) and 301 seconds in test [4] (1 mg/kg). Besides, in test [5], the “angle spanned by the spine (kyphosis, X-ray)” value was 89 °. Moreover, in test [6] (Triceps muscle), the “reduction in apoptotic myofibres compared to vehicle” value turned out to be 35%. The “apoptotic myofibres in the Triceps muscle (TUNEL)” value in test [6] (vehicle 1.1%) is on record as 0.7%.

Turning to `C#CCN(C)CC1=Cc2ccccc2Oc2ccccc21` [compound of formula (I), N-(dibenz(b,f)oxepin-10-ylmethyl)-N-methyl-N-prop-2-ynylamine], the “binding to GAPDH” value in test [7] was “binds to glyceraldehyde-3-phosphate dehydrogenase (GAPDH)”.
